Where “and” joins values, the source holds several entries; their conditions need not be identical. Identical values can stand only once.
Experiment: excess molar enthalpy (molar enthalpy of mixing); xn = mol fraction of the nth substance listed
Conditions: 101.3 kPa, Liquid, Flow calorimetry

CC(=O)C(C)=O [2,3-butanedione] + O
Conditions | excess molar enthalpy
288.18 K, x1 = 0.00103 | -0.00487 kcal/mol
288.18 K, x1 = 0.001032 | -0.00488 kcal/mol
288.18 K, x1 = 0.002059 | -0.00976 kcal/mol
288.18 K, x1 = 0.002062 | -0.00976 kcal/mol
288.18 K, x1 = 0.003086 | -0.0146 kcal/mol
288.18 K, x1 = 0.003089 | -0.0146 kcal/mol
288.18 K, x1 = 0.004111 | -0.0193 kcal/mol
288.18 K, x1 = 0.004113 | -0.0194 kcal/mol
288.18 K, x1 = 0.005132 | -0.0241 kcal/mol
288.18 K, x1 = 0.005135 | -0.0241 kcal/mol
288.18 K, x1 = 0.006153 | -0.029 kcal/mol
288.18 K, x1 = 0.006157 | -0.0288 kcal/mol
293.15 K, x1 = 0.001031 | -0.00462 kcal/mol
293.15 K, x1 = 0.00206 | -0.00926 kcal/mol
293.15 K, x1 = 0.003088 | -0.0138 kcal/mol
293.15 K, x1 = 0.004114 | -0.0182 kcal/mol
293.15 K, x1 = 0.005136 | -0.0227 kcal/mol
293.15 K, x1 = 0.006158 | -0.0272 kcal/mol
298.15 K, x1 = 0.001032 | -0.00443 kcal/mol and -0.00441 kcal/mol
298.15 K, x1 = 0.002061 | -0.00881 kcal/mol
298.15 K, x1 = 0.002062 | -0.00882 kcal/mol
298.15 K, x1 = 0.003089 | -0.0132 kcal/mol
298.15 K, x1 = 0.004113 | -0.0175 kcal/mol
298.15 K, x1 = 0.004114 | -0.0174 kcal/mol
298.15 K, x1 = 0.005137 | -0.0218 kcal/mol
298.15 K, x1 = 0.00616 | -0.0261 kcal/mol
303.15 K, x1 = 0.001032 | -0.00411 kcal/mol
303.15 K, x1 = 0.002061 | -0.00821 kcal/mol
303.15 K, x1 = 0.003089 | -0.0123 kcal/mol
303.15 K, x1 = 0.004114 | -0.0163 kcal/mol
303.15 K, x1 = 0.005137 | -0.0203 kcal/mol
303.15 K, x1 = 0.006159 | -0.0243 kcal/mol
308.15 K, x1 = 0.001031 | -0.00386 kcal/mol and -0.00387 kcal/mol
308.15 K, x1 = 0.00206 | -0.00777 kcal/mol and -0.00778 kcal/mol
308.15 K, x1 = 0.003086 | -0.0116 kcal/mol
308.15 K, x1 = 0.003088 | -0.0117 kcal/mol
308.15 K, x1 = 0.004109 | -0.0155 kcal/mol
308.15 K, x1 = 0.004114 | -0.0155 kcal/mol
308.15 K, x1 = 0.005131 | -0.0194 kcal/mol
308.15 K, x1 = 0.005137 | -0.0194 kcal/mol
308.15 K, x1 = 0.006152 | -0.0232 kcal/mol
308.15 K, x1 = 0.00616 | -0.0232 kcal/mol
313.15 K, x1 = 0.001032 | -0.00352 kcal/mol
313.15 K, x1 = 0.002062 | -0.0071 kcal/mol
313.15 K, x1 = 0.003091 | -0.0107 kcal/mol
313.15 K, x1 = 0.004116 | -0.0142 kcal/mol
313.15 K, x1 = 0.005139 | -0.0178 kcal/mol
313.15 K, x1 = 0.006161 | -0.0213 kcal/mol
318.15 K, x1 = 0.001031 | -0.00324 kcal/mol
318.15 K, x1 = 0.001032 | -0.00325 kcal/mol
318.15 K, x1 = 0.00206 | -0.00659 kcal/mol
318.15 K, x1 = 0.002062 | -0.00661 kcal/mol
318.15 K, x1 = 0.003088 | -0.01 kcal/mol
318.15 K, x1 = 0.00309 | -0.00996 kcal/mol
318.15 K, x1 = 0.004114 | -0.0133 kcal/mol
318.15 K, x1 = 0.004116 | -0.0133 kcal/mol
318.15 K, x1 = 0.005137 | -0.0167 kcal/mol
318.15 K, x1 = 0.00514 | -0.0168 kcal/mol
318.15 K, x1 = 0.006159 | -0.0201 kcal/mol

Reference: the NIST ThermoML archive (doi:10.1021/je300280s)
